Results reported in patent US11806346B2, “HTT modulators for treating Huntington's disease” (CHDI Foundation, Inc., priority 2020, dated 2023).

Each molecule was assayed on tHTT (total HTT protein) (assay: Time-resolved FRET assay, total huntingtin (tHTT) detection in cell lysates). Conditions: Comparator (Comparative Examples 145-147, within scope of WO 2015/197503); GEN020 hESCs, 48 hours; read-out: tHTT EC50.
Format: cell-based, human
Method in brief: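 TR-FRET readout on cell lysates, with the donor/acceptor ratio reflecting relative total HTT.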

Compound | EC50 [nM]
Cc1cn2cc(NC(=O)c3ccc(N4CCN(C)CC4)nc3)ccc2n1 [reference compound] | 16800

Same assay, conditions: GEN020 hESCs (mutant 48 Q repeat allele), compounds added for 48 hours, TR-FRET on lysate; read-out: tHTT EC50

Compound | EC50 [nM]
COc1cc2nn(C)cc2cc1NC(=O)c1cnc(N2CC[C@@H](NC3CC3)C2)cn1 [Example 271, 5-[(3R)-3-(cyclopropylamino)pyrrolidin-1-yl]-N-(6-methoxy-2-methyl-indazol-5-yl)pyrazine-2-carboxamide] | < 100
Cc1cn2cc(NC(=O)c3cnc(N4CC(C5CCCCN5C)C4)cn3)cc(F)c2n1 (single isomer, unassigned) [Example 232] | 100 to 500
CN[C@@H]1CCN(c2cnc(C(=O)Nc3cc4cc(C)nn4cc3OC)cn2)C1 [Example 176, (R)—N-(6-methoxy-2-methylpyrazolo[1,5-a]pyridin-5-yl)-5-(3-(methylamino)pyrrolidin-1-yl)pyrazine-2-carboxamide] | < 100
Cc1cn2cc(NC(=O)c3cnc(N4CCC(C5CCCN5)C4)cn3)cc(F)c2n1 (single isomer, unassigned) [Example 164] | 100 to 500
COc1nc(NC(=O)c2cnc(N3CCC(NC4CC4)C3)cn2)cn2cc(C)nc12 (centres unmarked) [Example 85] | 100 to 500
CCN[C@H]1CN(c2cnc(C(=O)Nc3cn4cc(C)nc4c(OC)n3)cn2)C[C@H]1F [Example 324, 5-((3S,4R)-3-(ethylamino)-4-fluoropyrrolidin-1-yl)-N-(8-methoxy-2-methylimidazo[1,2-a]pyrazin-6-yl)pyrazine-2-carboxamide] | 100 to 500
Cc1cn2cc(NC(=O)c3cnc(N4C[C@@H](N)C5(CC5)C4)cn3)cc(F)c2n1 [Example 371, (S)-5-(7-amino-5-azaspiro[2.4]heptan-5-yl)-N-(8-fluoro-2-methylimidazo[1,2-a]pyridin-6-yl)pyrazine-2-carboxamide] | 500 to 1000
Cc1cn2cc(NC(=O)c3cnc(N4CC[C@@H](NCC5CC5)C4)cn3)nc(C)c2n1 [Example 266] | 100 to 500
Cc1cn2cc(NC(=O)c3cnc(N4CC[C@H](N5CCCC5)C4)cn3)nc(C)c2n1 [Example 71] | 1000 to 10000
Cc1cn2cc(NC(=O)c3cnc(N4CCC(NC(C)C)C4)cn3)nc(C)c2n1 (centres unmarked) [Example 55] | 500 to 1000
CCNC1CN(c2ncc(C(=O)Nc3cc(F)c4nc(C)cn4c3)cn2)CC1F (single isomer, unassigned) [Example 137] | 100 to 500
Cc1cn2cc(NC(=O)c3cnc(N4CC5(CCCNC5)C4)cn3)cc(F)c2n1 [Example 172, N-(8-fluoro-2-methylimidazo[1,2-a]pyridin-6-yl)-5-(2,6-diazaspiro[3.5]nonan-2-yl)pyrazine-2-carboxamide] | 100 to 500
Cn1cc2cc(NC(=O)c3cnc(N4CC[C@@H](NC5CC5)C4)cn3)cc(F)c2n1 [Example 282] | 100 to 500
COc1nc(NC(=O)c2cnc(N3CC4(CCCN(C)C4)C3)cn2)cn2cc(C)nc12 [Example 211] | 100 to 500
COc1cc2nn(C)cc2cc1NC(=O)c1cnc(N2CC[C@@H](CNC3CC3)C2)cn1 [Example 351, (S)-5-(3-((cyclopropylamino)methyl)pyrrolidin-1-yl)-N-(6-methoxy-2-methyl-2H-indazol-5-yl)pyrazine-2-carboxamide] | 100 to 500
Cc1cn2cc(NC(=O)c3cnc(N4CCC(C5CCCN5C)C4)cn3)cc(F)c2n1 (single isomer, unassigned) [Example 235] | 100 to 500
CN[C@@H]1CN(c2cnc(C(=O)Nc3cc(F)c4nc(C)cn4c3)cn2)C[C@H]1C [Example 99] | 100 to 500
Cc1cn2cc(NC(=O)c3cnc(N4CC[C@@H](CN)C4)cn3)cc(F)c2n1 [Example 39] | 100 to 500
Cc1cn2cc(NC(=O)c3cnc(N4CC(CN5CC[C@H](F)C5)C4)cn3)cc(F)c2n1 [Example 191] | 100 to 500
Cn1cc2cc(NC(=O)c3cnc(N4CC(CNCCC(F)(F)F)C4)cn3)cc(F)c2n1 [Example 206] | 100 to 500
CN[C@@H]1CN(c2cnc(C(=O)Nc3cc(F)c4nc(C)cn4c3)cn2)C[C@@H]1C [Example 98] | 100 to 500
Cc1cn2cc(NC(=O)c3cnc(N4CC5CNC(C)(C)C5C4)cn3)cc(F)c2n1 (single isomer, unassigned) [Example 158] | 100 to 500
Cc1cn2cc(NC(=O)c3cnc(N4CC[C@@H](CNCCC(F)(F)F)C4)cn3)nc(C)c2n1 [Example 224, (S)—N-(2,8-dimethylimidazo[1,2-a]pyrazin-6-yl)-5-(3-(((3,3,3-trifluoropropyl)amino)methyl)pyrolidin-1-yl)pyrazine-2-carboxamide] | 100 to 500
Cc1cn2cc(NC(=O)c3cnc(N4CC(CNC5CC5)C4)cn3)cc(Cl)c2n1 [Example 312] | < 100
Cc1cn2cc(NC(=O)c3cnc(N4CCC(NC5COC5)C4)cn3)cc(F)c2n1 (centres unmarked) [Example 23] | 1000 to 10000
Cc1cn2cc(NC(=O)c3cnc(N4CCC5NCCC54)cn3)cc(F)c2n1 (centres unmarked) [Example 38] | 500 to 1000

Compound | EC50 [nM]
Cc1cn2cc(NC(=O)c3cnc(N4CC(N)C(F)C4)cn3)cc(F)c2n1 (centres unmarked) [Example 25] | 100 to 500
COCCN(CC1CN(c2cnc(C(=O)Nc3cc(F)c4nc(C)cn4c3)cn2)C1)C1CC1 [Example 299, 5-(3-((cyclopropyl(2-methoxyethyl)amino)methyl)azetidin-1-yl)-N-(8-fluoro-2-methylimidazo[1,2-a]pyridin-6-yl)pyrazine-2-carboxamide] | 100 to 500
Cc1cn2cc(NC(=O)c3cnc(N4CCC(C5CCCN5)CC4)cn3)cc(F)c2n1 (single isomer, unassigned) [Example 162] | 100 to 500
Cc1cn2cc(NC(=O)c3cnc(N4CCC(NC5CC5)C4)cn3)c(C)cc2n1 (single isomer, unassigned) [Example 116, 5-[3-(cyclopropylamino)pyrrolidin-1-yl]-N-(2,7-dimethylimidazo[1,2-a]pyridin-6-yl)pyrazine-2-carboxamide] | 1000 to 10000
Cc1cn2cc(NC(=O)c3cnc(N4CCC(NC5CCOCC5)C4)cn3)cc(F)c2n1 (centres unmarked) [Example 21] | 100 to 500
Cc1cn2cc(NC(=O)c3cnc(N4CC(CN5CC[C@@H](F)C5)C4)cn3)cc(F)c2n1 [Example 201] | 100 to 500
Cc1cn2cc(NC(=O)c3cnc(N4CC(CN5CCCC5)C4)cn3)cc(F)c2n1 [Example 245, N-(8-fluoro-2-methylimidazo[1,2-a]pyridin-6-yl)-5-(3-(pyrrolidin-1-ylmethyl)azetidin-1-yl)pyrazine-2-carboxamide] | 100 to 500
CC[C@H]1CN(c2cnc(C(=O)Nc3cc(F)c4nc(C)cn4c3)cn2)[C@H](C)CN1 [Example 2] | 100 to 500
CCN[C@H]1CCN(c2cnc(C(=O)Nc3cn4cc(C)nc4c(C)n3)cn2)C1 [Example 62] | 500 to 1000
Cc1cn2cc(NC(=O)c3cnc(N4CCC(C5CCCN5C)C4)cn3)cc(F)c2n1 (single isomer, unassigned) [Example 236] | < 100
Cc1cn2cc(NC(=O)c3cnc(N4CC5CNCC5C4=O)cn3)nc(C)c2n1 (centres unmarked) [Example 292] | 100 to 500
CN[C@H]1CCN(c2cnc(C(=O)Nc3cc(F)c4nc(C)cn4c3)cn2)C1 [Example 46] | < 100
Cc1cn2cc(NC(=O)c3cnc(N4CCC(NC5CC5)C4)nc3)cc(F)c2n1 (centres unmarked) [Example 131] | 100 to 500
Cc1cn2cc(NC(=O)c3cnc(N4CCNCC4)cn3)cc(F)c2n1 [Example 86, N-(8-fluoro-2-methylimidazo[1,2-a]pyridin-6-yl)-5-(piperazin-1-yl)pyrazine-2-carboxamide] | 1000 to 10000
Cc1cn2cc(NC(=O)c3cnc(N4CC(CNCCC(F)(F)F)C4)cn3)cc(F)c2n1 [Example 205] | < 100
Cc1cn2cc(NC(=O)c3cnc(N4C[C@H](C)N[C@@H](C)C4)cn3)cc(F)c2n1 [Example 82] | 500 to 1000
CCN[C@@H]1CCN(c2cnc(C(=O)Nc3cn4cc(C)nc4cc3OC)cn2)C1 [Example 345, (R)-5-(3-(ethylamino)pyrrolidin-1-yl)-N-(7-methoxy-2-methylimidazo[1,2-a]pyridin-6-yl)pyrazine-2-carboxamide] | < 100
Cc1cn2cc(NC(=O)c3cnc(N4CC(CN5CC[C@@](C)(F)C5)C4)cn3)cc(F)c2n1 [Example 356, N-(8-fluoro-2-methyl-imidazo[1,2-a]pyridin-6-yl)-5-[3-[[(3R)-3-fluoro-3-methyl-pyrrolidin-1-yl]methyl]azetidin-1-yl]pyrazine-2-carboxamide] | < 100
COc1cc2nn(C)cc2cc1NC(=O)c1cnc(N2CC3(CCC3NC3CC3)C2)cn1 (single isomer, unassigned) [Example 373] | 1000 to 10000
COc1nc(NC(=O)c2cnc(N(C)C3CC(C)(C)NC(C)(C)C3)cn2)cn2cc(C)nc12 [Example 216, N-(8-methoxy-2-methylimidazo[1,2-a]pyrazin-6-yl)-5-(methyl(2,2,6,6-tetramethylpiperidin-4-yl)amino)pyrazine-2-carboxamide] | 100 to 500
Cc1cn2cc(NC(=O)c3cnc(N4CC(CNCC(F)F)C4)cn3)cc(F)c2n1 [Example 192] | 100 to 500
Cc1nc2c(F)cc(NC(=O)c3cnc(N4CCNC(C)C4)cn3)cc2o1 (centres unmarked) [Example 339, N-(4-fluoro-2-methylbenzo[d]oxazol-6-yl)-5-(3-methylpiperazin-1-yl)pyrazine-2-carboxamide] | 1000 to 10000
Cc1cn2cc(NC(=O)c3cnc(N4CCC(NC5CC(F)(F)C5)C4)cn3)cc(F)c2n1 (centres unmarked) [Example 19] | 500 to 1000
CCNC1CN(c2cnc(C(=O)Nc3cn4cc(C)nc4c(OC)n3)cn2)CC1F [Example 325, 5-((3R,4S)-3-(ethylamino)-4-fluoropyrrolidin-1-yl)-N-(8-methoxy-2-methylimidazo[1,2-a]pyrazin-6-yl)pyrazine-2-carboxamide] | 100 to 500
Cc1cn2cc(NC(=O)c3cnc(N4CC5CCN(C)C5C4)cn3)cc(F)c2n1 (centres unmarked) [Example 31] | 500 to 1000
Cc1cn2cc(NC(=O)c3cnc(N(C)C4CC(C)(C)NC(C)(C)C4)cn3)cc(F)c2n1 [Example 353, N-(8-fluoro-2-methylimidazo[1,2-a]pyridin-6-yl)-5-(methyl(2,2,6,6-tetramethylpiperidin-4-yl)amino)pyrazine-2-carboxamide] | 100 to 500
